Results taken from patent US20250228835A1, “PYRIDINYLOXYPYRIDINES AND RELATED COMPOUNDS AND THEIR USE IN TREATING MEDICAL CONDITIONS” (Rectify Pharmaceuticals, Inc., priority 2024, published 2025).

Molecular target: T1, ABCD2 WT (Homo sapiens, UniProt Q9UBJ2)
T1 construct: expressed in transfected cells
T1 sequence (Q9UBJ2 1-740): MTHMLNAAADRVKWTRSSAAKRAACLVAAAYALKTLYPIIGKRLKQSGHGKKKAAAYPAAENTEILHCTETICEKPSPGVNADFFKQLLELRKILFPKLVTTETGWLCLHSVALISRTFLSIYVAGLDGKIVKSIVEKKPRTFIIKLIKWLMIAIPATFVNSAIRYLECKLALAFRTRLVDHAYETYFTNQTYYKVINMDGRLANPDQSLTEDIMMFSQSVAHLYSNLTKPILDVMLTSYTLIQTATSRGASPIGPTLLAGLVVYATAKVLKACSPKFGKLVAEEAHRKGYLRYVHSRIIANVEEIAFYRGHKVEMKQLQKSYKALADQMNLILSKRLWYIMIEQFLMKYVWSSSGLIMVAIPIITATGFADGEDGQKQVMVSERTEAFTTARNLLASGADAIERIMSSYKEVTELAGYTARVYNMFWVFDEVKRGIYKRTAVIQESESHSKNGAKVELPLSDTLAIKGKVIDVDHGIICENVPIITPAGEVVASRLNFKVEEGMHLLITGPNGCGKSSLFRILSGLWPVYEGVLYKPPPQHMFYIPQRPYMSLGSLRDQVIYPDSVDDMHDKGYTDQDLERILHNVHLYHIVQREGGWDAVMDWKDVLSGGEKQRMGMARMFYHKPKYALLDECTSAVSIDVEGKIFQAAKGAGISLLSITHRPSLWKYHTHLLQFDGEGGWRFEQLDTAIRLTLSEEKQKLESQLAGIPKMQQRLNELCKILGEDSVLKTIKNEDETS
Assay: D2 correction dose-response assay: ABCD2 WT HiBit protein expression
Format: cell-based
Details: HEK-293/ABCD2 WT cells, 24 hours treatment, HiBit luminescence; class combines EC50 and Mean MaxAct (fold); read-out: ABCD2 WT EC50, Emax
Summary of the method: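 HEK-293 cells stably expressing HiBit-tagged human ABCD2 WT were treated with 11 doses (3-fold dilutions, top final 30 μM, 0.3% DMSO) for 24 h at 37 °C. Expression was measured by HiBit lytic luminescence after 1 h at 25 °C, giving EC50 and Emax.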

EC50 [µM]	SMILES
1 to 10	Cc1cc(C)c(Oc2nc(-c3cncc(Cl)c3)ccc2S(=O)(=O)NC(c2ccccn2)C(F)(F)F)c(C)c1 (single isomer, unassigned) [Compound I-79]
1 to 10	Cc1cc(C)c(Oc2nc(-c3cncc(Cl)c3)ccc2S(=O)(=O)NC(c2ccccn2)C(F)(F)F)c(C)c1 (single isomer, unassigned) [Compound I-80]
1 to 10	Cc1cc(C)c(Oc2nc(-c3cncc(C(N)=O)c3)ccc2NS(C)(=O)=O)c(C2CC2)n1 [Compound I-1]
10 to 25	Cc1cc(C)c(Oc2nc(-c3cn[nH]c3)ccc2NS(C)(=O)=O)c(C2CC2)c1 [Compound I-2]
1 to 10	Cc1ccc(Oc2nc(-c3cncc(C#N)c3)ccc2NS(C)(=O)=O)c(C)n1 [Compound I-3]
1 to 10	Cc1cc(C)c(Oc2nc(-c3cncc(Cl)c3)ccc2N(C2CC2)S(C)(=O)=O)c(C)c1 [Compound I-42]
> 25	Cc1cc(C)c(Oc2nc(N3CC4(C3)CN(S(=O)(=O)C3CC3)C4)ccc2NS(C)(=O)=O)c(C)c1 [Compound I-43]
10 to 25	Cc1cc(C)c(Oc2nc(N3CCN(S(=O)(=O)C4CC4)CC3)ccc2NS(C)(=O)=O)c(C)c1 [Compound I-44]
< 1	Cc1cc(C)c(Oc2nc(-c3ccc(C#N)nc3)ccc2NS(C)(=O)=O)c(C)c1 [Compound I-45]
< 1	Cc1cc(C)c(Oc2nc(-c3cncc(Cl)c3)ccc2NS(C)(=O)=O)c(C)n1 [Compound I-46]
1 to 10	Cc1cc(C)c(Oc2nc(N3CCN(C(=O)C4CC4)CC3)ccc2NS(C)(=O)=O)c(C)c1 [Compound I-47]
< 1	Cc1cc(C)c(Oc2nc(-c3cncc(Cl)c3)ccc2N(C)S(C)(=O)=O)c(C)c1 [Compound I-48]
> 25	Cc1cc(C)c(Oc2nc(-c3cncc(Cl)c3)ccc2NS(=O)(=O)C2CC2)c(C)c1 [Compound I-49]
> 25	CC(=O)NC1CN(c2ccc(NS(=O)(=O)c3cccnc3)c(Oc3c(C)cc(C)cc3C3CC3)n2)C1 [Compound I-50]
> 25	COC1CC(S(=O)(=O)Nc2ccc(-c3cncc(Cl)c3)nc2Oc2c(C)cc(C)cc2C)C1 (stereo not drawn) [Compound I-51]
< 1	Cc1cc(C)c(Oc2nc(-c3cncc(Cl)c3)ccc2N(C)S(=O)(=O)c2cnn(C)c2)c(C2CC2)c1 [Compound I-52]
> 25	Cc1cc(C)c(Oc2nc(-c3cncc(Cl)c3)ccc2N(C)S(=O)(=O)c2cccnc2)c(C2CC2)c1 [Compound I-53]
1 to 10	Cc1cc(C)c(Oc2nc(-c3cncc(Cl)c3)ccc2NS(=O)(=O)c2cccnc2)c(C2CC2)c1 [Compound I-54]
< 1	Cc1cc(C)c(Oc2nc(-c3cncc(Cl)c3)ccc2NS(C)(=O)=O)c(C)c1 [Compound I-55]
1 to 10	Cc1cc(C)c(Oc2cc(-c3cncc(Cl)c3)ncc2NS(C)(=O)=O)c(C)c1 [Compound I-56]
< 1	Cc1cc(C)c(Oc2nc(-c3cncc(Cl)c3)ccc2NS(C)(=O)=O)c(C2CC2)c1 [Compound I-57]
> 25	Cc1cc(C)c(Oc2nc(-c3cncc(Cl)c3)ccc2NS(=O)(=O)c2cnn(C)c2)c(C2CC2)c1 [Compound I-58]
1 to 10	Cc1cc(C)c(Oc2cc(-c3cncc(Cl)c3)cnc2N(C)S(=O)(=O)c2cnn(C)c2)c(C)c1 [Compound I-59]
1 to 10	Cc1cc(C)c(Oc2cc(-c3cncc(Cl)c3)cnc2NS(C)(=O)=O)c(C)c1 [Compound I-60]
1 to 10	Cc1cc(C)c(Oc2cc(-c3cncc(Cl)c3)cnc2NS(=O)(=O)c2cnn(C)c2)c(C)c1 [Compound I-61]
< 1	Cc1cc(C)c(Oc2nc(-c3cncc(Cl)c3)ccc2NS(=O)(=O)Cc2ccccn2)c(C)c1 [Compound I-62]
> 25	COc1ccc2nc[nH]c2c1S(=O)(=O)Nc1ccc(-c2cncc(Cl)c2)nc1Oc1c(C)cc(C)cc1C [Compound I-63]

EC50 [µM]	SMILES
1 to 10	Cc1cc(C)c(Oc2nc(-c3cncc(Cl)c3)ccc2N(C)S(=O)(=O)Cc2ccccc2)c(C)c1 [Compound I-64]
> 25	Cc1cc(C)c(Oc2nc(-c3cncc(Cl)c3)ccc2NS(=O)(=O)Cc2ccccc2)c(C)c1 [Compound I-65]
10 to 25	Cc1cc(C)c(Oc2nc(-c3cncc(Cl)c3)ccc2N2CCCCS2(=O)=O)c(C)c1 [Compound I-66]
1 to 10	Cc1cc(C)c(Oc2nc(-c3cncc(Cl)c3)ccc2N2CCCS2(=O)=O)c(C)c1 [Compound I-67]
> 25	Cc1cc(C)c(Oc2nc(-c3cncc(Cl)c3)ccc2NS(=O)(=O)C(C)(C)C)c(C)c1 [Compound I-68]
> 25	Cc1cc(C)c(Oc2nc(-c3cncc(Cl)c3)ccc2N(C)S(=O)(=O)c2cccnc2)c(C)c1 [Compound I-69]
< 1	Cc1cc(C)c(Oc2nc(-c3cncc(Cl)c3)ccc2N(C)S(=O)(=O)c2cnn(C)c2)c(C)c1 [Compound I-70]
< 25	Cc1cc(C)c(Oc2nc(-c3cncc(Cl)c3)ccc2NS(=O)(=O)c2cccnc2)c(C)c1 [Compound I-71]
< 1	Cc1cc(C)c(Oc2nc(-c3cncc(Cl)c3)ccc2NS(=O)(=O)c2cnn(C)c2)c(C)c1 [Compound I-72]
1 to 10	CNS(=O)(=O)c1ccc(N2CCN(C(=O)C3CC3)CC2)nc1Oc1c(C)cc(C)cc1C [Compound I-73]
< 25	COC1CC(NS(=O)(=O)c2ccc(-c3cncc(Cl)c3)nc2Oc2c(C)cc(C)cc2C2CC2)C1 (stereo not drawn) [Compound I-74]
< 25	Cc1cc(C)c(Oc2nc(-c3cncc(Cl)c3)ccc2S(=O)(=O)Nc2cnn(C)c2)c(C2CC2)c1 [Compound I-75]
1 to 10	Cc1cc(C)c(Oc2nc(-c3cncc(Cl)c3)ccc2S(=O)(=O)NCc2ccccn2)c(C2CC2)c1 [Compound I-76]
< 1	CNS(=O)(=O)c1ccc(-c2cncc(Cl)c2)nc1Oc1c(C)cc(C)cc1C1CC1 [Compound I-77]
1 to 10	COC1CC(NS(=O)(=O)c2ccc(-c3cncc(Cl)c3)nc2Oc2c(C)cc(C)cc2C)C1 (stereo not drawn) [Compound I-78]
1 to 10	Cc1cc(C)c(Oc2nc(-c3cncc(Cl)c3)ccc2S(=O)(=O)N[C@H](c2ccccc2)C(F)(F)F)c(C)c1 [Compound I-81]
1 to 10	Cc1cc(C)c(Oc2nc(-c3cncc(Cl)c3)ccc2S(=O)(=O)N[C@@H](c2ccccc2)C(F)(F)F)c(C)c1 [Compound I-83]
10 to 25	CNS(=O)(=O)c1cnc(-c2cncc(Cl)c2)cc1Oc1c(C)cc(C)cc1C [Compound I-84]
1 to 10	Cc1cc(C)c(Oc2nc(-c3cncc(Cl)c3)ccc2S(=O)(=O)N(C)Cc2ccccc2)c(C)c1 [Compound I-85]
1 to 10	Cc1cc(C)c(Oc2nc(-c3cncc(Cl)c3)ccc2S(=O)(=O)NCc2ccccn2)c(C)c1 [Compound I-86]
> 25	Cc1cc(C)c(Oc2nc(-c3cncc(Cl)c3)ccc2S(=O)(=O)NCc2cc(C(F)(F)F)ccn2)c(C)c1 [Compound I-87]
1 to 10	Cc1cc(C)c(Oc2nc(-c3cncc(Cl)c3)ccc2S(=O)(=O)NCc2ccccc2)c(C)c1 [Compound I-88]
1 to 10	CNS(=O)(=O)c1ncc(-c2cncc(Cl)c2)nc1Oc1c(C)cc(C)c(Cl)c1C [Compound I-89]
1 to 10	Cc1cc(C)c(Oc2nc(-c3cncc(Cl)c3)cnc2S(N)(=O)=O)c(C)c1Cl [Compound I-90]
> 25	CNS(=O)(=O)c1ccc(N2CCN(C)C(=O)C2)nc1Oc1c(C)cc(C)cc1C [Compound I-92]
1 to 10	Cc1cc(C)c(Oc2nc(-c3cncc(Cl)c3)ncc2S(N)(=O)=O)c(C)c1Cl [Compound I-93]
1 to 10	Cc1cc(C)c(Oc2nc(-c3cncc(Cl)c3)ccc2S(=O)(=O)Nc2cnn(C)c2)c(C)c1 [Compound I-94]
